Source: patent US20260256822A1, “ENTRY-MODULATING AGENTS AND USES THEREFOR” (priority 2022, published 2026)
Where “and” joins values, the source holds several entries; their conditions need not be identical. Equal entries are not always repeated. Structures can show the parent of a compound that is named as a salt. Where two headings read alike, the source gives them in different places.

Assays:
PfCyRPA [1] = biological target: T1, PfCyRPA (Plasmodium falciparum, UniProt Q8IFM8); assay: biochemical
Target sequence in this assay (Q8IFM8 29-362): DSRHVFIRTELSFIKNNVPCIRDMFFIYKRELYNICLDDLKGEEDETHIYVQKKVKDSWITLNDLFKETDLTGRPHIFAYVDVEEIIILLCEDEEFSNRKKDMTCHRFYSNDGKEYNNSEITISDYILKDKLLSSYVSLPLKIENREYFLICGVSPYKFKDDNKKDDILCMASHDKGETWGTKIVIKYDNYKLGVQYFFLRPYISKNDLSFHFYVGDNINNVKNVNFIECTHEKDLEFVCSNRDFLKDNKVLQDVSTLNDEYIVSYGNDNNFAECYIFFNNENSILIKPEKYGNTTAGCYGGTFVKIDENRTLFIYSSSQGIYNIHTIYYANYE

PfCyRPA [2] = biological target: T1, PfCyRPA; details: for affinity of interaction with PfCyRPA: SPR
Target sequence in this assay (Q8IFM8 29-362): as above

P. falciparum 3D7 clone = assay: In vitro blood stage parasite growth inhibition assay, [3H]-hypoxanthine incorporation, human red blood cells; type: cell-based, Plasmodium falciparum
PfCyRPA [3] = biological target: T1, PfCyRPA; type: binding; details: compound injected first, then 2-6SLN; both at 1 μM
Target sequence in this assay (Q8IFM8 29-362): as above

PvCyRPA = PvCyRPA (Plasmodium vivax, UniProt A5K678, A187P/D259E/E126K/E159D/E86Q/G127E/G69A/H95N/K131E/K185E/K93E/Q142K/R122K/T90K); type: binding; details: Table 12, PvCyRPA
PfCyRPA [4] = biological target: T1, PfCyRPA; details: SPR
Target sequence in this assay (Q8IFM8 26-362): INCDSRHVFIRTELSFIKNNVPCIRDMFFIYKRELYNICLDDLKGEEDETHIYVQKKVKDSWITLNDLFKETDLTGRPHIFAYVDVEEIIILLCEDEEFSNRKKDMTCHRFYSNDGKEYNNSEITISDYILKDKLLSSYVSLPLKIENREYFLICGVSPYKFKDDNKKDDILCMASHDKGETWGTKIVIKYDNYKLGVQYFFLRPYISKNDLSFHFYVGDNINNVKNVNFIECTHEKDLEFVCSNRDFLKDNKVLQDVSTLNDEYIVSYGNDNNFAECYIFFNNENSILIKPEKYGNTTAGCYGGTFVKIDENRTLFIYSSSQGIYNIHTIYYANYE

[5] = biological target: T2, New Delhi metallo-beta-lactamase 2 (NDM2) (Klebsiella pneumoniae, UniProt C7C422, P28A); details: read-out: NDM2 KD; Table 9
[6] = for Serum concentration of zinc pyrithione: human
Protocol: Participants were instructed to completely wet hair, measure out 20 mL of anti-dandruff shampoo using a measuring cup provided, pour shampoo onto the scalp and massage shampoo into the scalp, leave shampoo on for 5-10 minutes using the timer provided then completely rinse off shampoo. Blood and urine samples were also collected on day 3 (two days of shampoo use), day 4 (three days of shampoo use), day 5 (day after shampoo use stops) and day 10 (five days after shampoo use has stopped). Serum was separated from blood collected in SST II Advance serum separation tubes (BD) according to the manufacturer's instructions. Sera and urine were batched and stored at −80° C. within 4 hours of collection.
(§1) Standard curves were run across the following concentrations: • ZnPT—0.61 nM to 10 μM • PT—61 nM to 1 mM • Zinc—0.61 μM to 10 mM

[7] = mice, 7 days post infection
Protocol: To determine the level of ZnPT in serum a methodology using two ZnPT binding proteins was developed.
as §1

[8] = biological target: T2, New Delhi metallo-beta-lactamase 2 (NDM2); assay: biochemical
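Throughout, for Serum concentration of zinc pyrithione: human volunteers used 1% ZPT shampoo twice daily for three days from day 2, serum sampled on days 1 (pre-use), 3, 4, 5 and 10.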
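Throughout, for day of the highest serum concentration of ZnPT: human volunteers used 1% ZPT shampoo twice daily for three days from day 2, serum sampled on days 1 (pre-use), 3, 4, 5 and 10.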

T2 sequence (C7C422 29-270 P28A (numbered from the first residue shown)): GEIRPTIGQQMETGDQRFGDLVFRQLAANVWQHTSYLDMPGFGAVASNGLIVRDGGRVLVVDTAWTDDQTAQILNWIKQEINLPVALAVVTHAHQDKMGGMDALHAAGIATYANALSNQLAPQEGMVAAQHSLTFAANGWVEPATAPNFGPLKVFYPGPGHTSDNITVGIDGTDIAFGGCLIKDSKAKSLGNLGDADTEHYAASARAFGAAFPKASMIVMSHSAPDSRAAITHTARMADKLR

## CCC(C)(C)C(=O)O[C@H]1C[C@@H](C)C=C2C=C[C@H](C)[C@H](CC[C@@H]3C[C@@H](O)CC(=O)O3)[C@H]21 [Simvastatin]
PfCyRPA [1]
  Kd: 31.4 ± 2.24 nM

## Milbemycin
PfCyRPA [2]
  Kd: 967 ± 57 nM

## Abamectin
PfCyRPA [2]
  Kd: 19.1 ± 1.17 nM
P. falciparum 3D7 clone; Table 7, human RBC, P. falciparum 3D7
  EC50 in RBC infection: 0.888 µg/mL
P. falciparum 3D7 clone; Table 7, human RBC, P. falciparum 3D7, read-out: EC50 in RBC infection
  EC50: 1000 nM
P. falciparum 3D7 clone; human RBC
  concentration that completely inhibits P. falciparum infection of human RBCs: 4000 ng/mL and 4.50 μM
PfCyRPA [3]
  Blocking of 2-6SLN binding: 91.4% ± 6.8
PvCyRPA
  Kd: 1140 ± 230 nM

## Neu5Ac-α-(2-6)-Gal-β-(1-4)-GlcNAc [α2-6-SLN-Ac]
PfCyRPA [4]
  glycan ligand affinity for PfCyRPA: highest affinity ligand

## [O-][n+]1ccccc1S [Sodium Pyrithione]
PfCyRPA [2]; Table 3, PfCyRPA
  Kd: 122000 nM
PfCyRPA [2]; read-out: CyRPA KD, Table 9
  Kd: 122000 nM
[5]
  Kd: 789000 nM

## O=S(=O)([O-])[O-].[Zn+2] [Zinc, Zinc sulfate]
PfCyRPA [2]; Table 3, PfCyRPA
  Kd: 546000 nM
PfCyRPA [2]; read-out: CyRPA KD, Table 9
  Kd: 546000 nM
[5]
  Kd: 317000 nM

## CC(O)C(=O)O.CCOc1ccc2nc3cc(N)ccc3c(N)c2c1 (racemic) [RIVANOL, 6,9-Diamino-2-ethoxyacridine-DL-lactate monohydrate]
P. falciparum 3D7 clone; Plasmodium falciparum, 3D7, Erythrocyte, Table 8, human RBC, P. falciparum 3D7, read-out: EC50 in RBC infection
  EC50: 0.019 µg/mL and 55.3 nM
P. falciparum 3D7 clone; human RBC, monohydrate
  concentration that completely inhibits P. falciparum infection of human RBCs: 100 ng/mL and 291.1 nM
PfCyRPA [3]
  Blocking of 2-6SLN binding: 87.6% ± 9.7
PfCyRPA [1]
  Kd: 2.46 ± 0.41 nM

## Zinc Pyrithione
PfCyRPA [2]
  Kd: 0.833 ± 0.192 nM
  affinity of interaction with PfCyRPA: high affinity interaction
PfCyRPA [2]; Table 3, PfCyRPA
  Kd: 0.833 nM
PfCyRPA [2]; read-out: CyRPA KD, Table 9
  Kd: 0.833 nM
P. falciparum 3D7 clone; Table 6, human RBC, P. falciparum 3D7, listed as ZnPT
  EC50 in RBC infection: 0.163 µg/mL
P. falciparum 3D7 clone; Table 6, human RBC, P. falciparum 3D7, read-out: EC50 in RBC infection
  EC50: 513 nM
P. falciparum 3D7 clone; human RBC, listed as ZnPT
  concentration that completely inhibits P. falciparum infection of human RBCs: 500 ng/mL and 1.57 μM
PfCyRPA [3]
  Blocking of 2-6SLN binding: 98.2% ± 3.4
[5]
  Kd: 38.5 nM
[6]; Serum 1, Day 1 (before shampoo use)
  Serum concentration of zinc pyrithione: 0.03 μM ±
[6]; Serum 1, Day 3, topical 1% ZPT shampoo
  Serum concentration of zinc pyrithione: 0.04 μM ±
[6]; Serum 1, Day 4, topical 1% ZPT shampoo
  Serum concentration of zinc pyrithione: 0.66 μM ±
[6]; Serum 1, Day 5, topical 1% ZPT shampoo
  Serum concentration of zinc pyrithione: 2.7 μM ±
[6]; Serum 1, Day 10, topical 1% ZPT shampoo
  Serum concentration of zinc pyrithione: −0.07 μM ±
[6]; Serum 2, Day 1 (before shampoo use)
  Serum concentration of zinc pyrithione: 0.02 μM ±
[6]; Serum 2, Day 3, topical 1% ZPT shampoo
  Serum concentration of zinc pyrithione: 0.88 μM ±
[6]; Serum 2, Day 4, topical 1% ZPT shampoo
  Serum concentration of zinc pyrithione: 1.8 μM ±
[6]; Serum 2, Day 5, topical 1% ZPT shampoo
  Serum concentration of zinc pyrithione: 4.3 μM ±
[6]; Serum 2, Day 10, topical 1% ZPT shampoo
  Serum concentration of zinc pyrithione: 0.33 μM ±
[6]; Serum 3, Day 1 (before shampoo use)
  Serum concentration of zinc pyrithione: 0.08 μM ±
[6]; Serum 3, Day 3, topical 1% ZPT shampoo
  Serum concentration of zinc pyrithione: 0.24 μM ±
[6]; Serum 3, Day 4, topical 1% ZPT shampoo
  Serum concentration of zinc pyrithione: 0.84 μM ±
[6]; Serum 3, Day 5, topical 1% ZPT shampoo
  Serum concentration of zinc pyrithione: 1.6 μM ±
[6]; Serum 3, Day 10, topical 1% ZPT shampoo
  Serum concentration of zinc pyrithione: 1.0 μM ±
[6]; Serum 4, Day 1 (before shampoo use)
  Serum concentration of zinc pyrithione: 0.03 μM ±
[6]; Serum 4, Day 3, topical 1% ZPT shampoo
  Serum concentration of zinc pyrithione: 0.81 μM ±
[6]; Serum 4, Day 4, topical 1% ZPT shampoo
  Serum concentration of zinc pyrithione: 1.0 μM ±
[6]; Serum 4, Day 5, topical 1% ZPT shampoo
  Serum concentration of zinc pyrithione: 1.5 μM ±
[6]; Serum 4, Day 10, topical 1% ZPT shampoo
  Serum concentration of zinc pyrithione: 1.2 μM ±
[6]; Serum 5, Day 1 (before shampoo use)
  Serum concentration of zinc pyrithione: 0.01 μM ±
[6]; Serum 5, Day 3, topical 1% ZPT shampoo
  Serum concentration of zinc pyrithione: 0.02 μM ±
[6]; Serum 5, Day 4, topical 1% ZPT shampoo
  Serum concentration of zinc pyrithione: 0.10 μM ±
[6]; Serum 5, Day 5, topical 1% ZPT shampoo
  Serum concentration of zinc pyrithione: 0.22 μM ±
[6]; Serum 5, Day 10, topical 1% ZPT shampoo
  Serum concentration of zinc pyrithione: 0.02 μM ±
[6]; Serum 6, Day 1 (before shampoo use)
  Serum concentration of zinc pyrithione: 0.001 μM ±
[6]; Serum 6, Day 3, topical 1% ZPT shampoo
  Serum concentration of zinc pyrithione: 0.10 μM ±
[6]; Serum 6, Day 4, topical 1% ZPT shampoo
  Serum concentration of zinc pyrithione: 0.21 μM ±
[6]; Serum 6, Day 5, topical 1% ZPT shampoo
  Serum concentration of zinc pyrithione: 0.38 μM ±
[6]; Serum 6, Day 10, topical 1% ZPT shampoo
  Serum concentration of zinc pyrithione: 0.007 μM ±
[6]; Serum 7, Day 1 (before shampoo use)
  Serum concentration of zinc pyrithione: 0.01 μM ±
[6]; Serum 7, Day 3, topical 1% ZPT shampoo
  Serum concentration of zinc pyrithione: 0.84 μM ±
[6]; Serum 7, Day 4, topical 1% ZPT shampoo
  Serum concentration of zinc pyrithione: 0.96 μM ±
[6]; Serum 7, Day 5, topical 1% ZPT shampoo
  Serum concentration of zinc pyrithione: 1.5 μM ±
[6]; Serum 7, Day 10, topical 1% ZPT shampoo
  Serum concentration of zinc pyrithione: 1.2 μM ±
[6]; Serum 8, Day 1 (before shampoo use)
  Serum concentration of zinc pyrithione: 0.02 μM ±
[6]; Serum 8, Day 3, topical 1% ZPT shampoo
  Serum concentration of zinc pyrithione: 0.02 μM ±
[6]; Serum 8, Day 4, topical 1% ZPT shampoo
  Serum concentration of zinc pyrithione: 0.09 μM ±
[6]; Serum 8, Day 5, topical 1% ZPT shampoo
  Serum concentration of zinc pyrithione: 0.26 μM ±
[6]; Serum 8, Day 10, topical 1% ZPT shampoo
  Serum concentration of zinc pyrithione: 0.11 μM ±
[6]; Serum 9, Day 1 (before shampoo use)
  Serum concentration of zinc pyrithione: 0.04 μM ±
[6]; Serum 9, Day 3, topical 1% ZPT shampoo
  Serum concentration of zinc pyrithione: 0.22 μM ±
[6]; Serum 9, Day 4, topical 1% ZPT shampoo
  Serum concentration of zinc pyrithione: 0.30 μM ±
[6]; Serum 9, Day 5, topical 1% ZPT shampoo
  Serum concentration of zinc pyrithione: 0.49 μM ±
[6]; Serum 9, Day 10, topical 1% ZPT shampoo
  Serum concentration of zinc pyrithione: 0.14 μM ±
[6]; Serum 10, Day 1 (before shampoo use)
  Serum concentration of zinc pyrithione: 0.004 μM ±
[6]; Serum 10, Day 3, topical 1% ZPT shampoo
  Serum concentration of zinc pyrithione: 0.15 μM ±
[6]; Serum 10, Day 4, topical 1% ZPT shampoo
  Serum concentration of zinc pyrithione: 1.1 μM ±
[6]; Serum 10, Day 5, topical 1% ZPT shampoo
  Serum concentration of zinc pyrithione: 1.5 μM ±
[6]; Serum 10, Day 10, topical 1% ZPT shampoo
  Serum concentration of zinc pyrithione: 0.98 μM ±
[6]; day after three consecutive days of topical treatment
  day of the highest serum concentration of ZnPT: 5 days
PvCyRPA
  Kd: 50.8 ± 2.91 nM
[7]
  Serum concentration at the point of testing: < 163 ng/mL

## On1ccccc1=S [1-Hydroxy-2(1H)-pyridinethione]
[8]
  Kd: 894000 nM
PfCyRPA [1]
  Kd: 169000 nM

## CCC(C)[C@H]1O[C@]2(CC[C@@H]1C)C[C@@H]1C[C@@H](C/C=C(\C)[C@@H](O[C@H]3C[C@H](OC)[C@@H](O[C@H]4C[C@@H](OC)[C@H](O)[C@@H](C)O4)[C@H](C)O3)[C@@H](C)/C=C/C=C3\CO[C@@H]4[C@H](O)C(C)=C[C@@H](C(=O)O1)[C@]34O)O2 (some centres unmarked) [Ivermectin]
PfCyRPA [2]
  affinity of interaction with PfCyRPA: high affinity interaction
P. falciparum 3D7 clone; Plasmodium falciparum, 3D7, Erythrocyte, human RBC, Example 6
  EC50: 0.534 µg/mL
P. falciparum 3D7 clone; human RBC
  concentration that completely inhibits P. falciparum infection of human RBCs: 2000 ng/mL and 2.29 μM
P. falciparum 3D7 clone; read-out: EC50 in RBC infection, Table 7, human RBC, P. falciparum 3D7
  EC50: 610 nM
PfCyRPA [3]
  Blocking of 2-6SLN binding: 67.3% ± 4.9
PfCyRPA [1]
  Kd: 93.2 ± 14 nM

## O=C1CC2(CCCC2)CC(=O)N1CCCCN1CCN(c2ncccn2)CC1 [Buspirone hydrochloride]
PfCyRPA [3]
  Blocking of 2-6SLN binding: 77.4% ± 8.2
PfCyRPA [1]
  Kd: 33.6 ± 4.31 nM

## Emamectin
PfCyRPA [2]
  Kd: > 100000 nM

## COc1ccc(CCC(=O)c2c(O)cc(O[C@@H]3O[C@H](CO)[C@@H](O)[C@H](O)[C@H]3O[C@@H]3O[C@@H](C)[C@H](O)[C@@H](O)[C@H]3O)cc2O)cc1O [Neohesperidin dihydrochalcone]
PfCyRPA [1]
  Kd: 24.6 ± 1.45 nM

## CO[C@H]1C[C@H](O[C@H]2[C@H](C)O[C@@H](O[C@@H]3/C(C)=C/C[C@@H]4C[C@@H](C[C@]5(C=C[C@H](C)[C@@H](C6CCCCC6)O5)O4)OC(=O)[C@@H]4C=C(C)[C@@H](O)[C@H]5OC/C(=C\C=C\[C@@H]3C)[C@]54O)C[C@@H]2OC)O[C@@H](C)[C@@H]1O [Doramectin]
PfCyRPA [2]
  Kd: 7040 ± 2030 nM

## CO/N=C1\C[C@]2(C[C@@H]3C[C@@H](C/C=C(\C)C[C@@H](C)/C=C/C=C4\CO[C@@H]5[C@H](O)C(C)=C[C@@H](C(=O)O3)[C@]45O)O2)O[C@H](/C(C)=C/C(C)C)[C@H]1C [Moxidectin]
PfCyRPA [1]
  Kd: 13400 ± 521 nM
